Data set [1] can be described thus: PEG-CIPRO absorption from lung after IT administration. Particulars: Cipro and PEG-Cipro. From the text:
In vivo absorption data was collected through rat studies, in which, following IT administration to rats, whole lungs were excised and analyzed for test article concentration.

A short description of data set [2]: Lung residence after intratracheal administration (BAL, BAL cells, residual lung, serum). Particulars: for half-life: rat, other: intratracheal (IT), 30 μg. The class given is in vivo, rats. The procedure:
To determine the effect of PEG length on residence time in the lung, a series of in vivo experiments was performed in which each PEG-FITC species was administered intratracheally (IT) to rats, and the amount remaining in the lung was determined at progressive time points. For each species, 30 μg PEG-FITC, prepared in PBS/0.5% BSA, was administered IT to rats (300 μL of a 100 μg/mL solution). […] Following the lavage, lungs were excised, and samples of serum were extracted. The resulting lavage solution was then centrifuged to pellet the cellular fraction (BAL cells) and separate it from the BAL supernatant.
Samples from BAL, BAL cells and serum were read directly in microtiter plates with no prior treatment. To quantitate PEG-FITC remaining in the residual lung material, however, the excised lungs were homogenized and PEG-FITC was extracted in ethanol.
For all samples, quantitation was performed by interpolation from a standard curve generated from known concentrations of the relevant molecule prepared in the correlating matrix. Thus for samples of BAL and BAL cells, the standard samples were prepared in 0.9% NaCl, for serum samples, the standards were prepared in commercially obtained rat serum, and for lung extracts, the standard samples were prepared in PBS: Ethanol (1:3).
For BAL studies, the total amount remaining was calculated for each animal from the product of the concentration and the BAL volume recorded. For BAL cells, the pellet was resuspended in 1 mL; the amount present was calculated accordingly. For residual lung tissue, the amount present in both lungs (μg/lung) was calculated from the product of the concentration and the homogenate volume. Note that although the nominal dose delivered in each experiment was 30 μg, the dosing solution was analyzed from the same standard curve for each experiment and the actual delivered dose was calculated. The data shown throughout this specification are thus corrected for each PEG-FITC species respectively and are represented as percentage dose administered. The doses delivered in each experiment are represented in Table VIII below.

Data set [3] can be described thus: Cell-based permeability in Calu-3 cells. The class given is in vitro ADME. The conditions noted are these: human.
Method: In vitro cell-based experiments (in a Calu-3 assay) were performed for PEG-FITC conjugates. The Calu-3 cells were cultured with an apical air-interface to mimic the in vivo epithelium.

Where a name gives a salt, the structure may show the parent alone. Read-outs that look alike come from different tables or passages of the source.

For `O=C(O)c1cn(C2CC2)c2cc(N3CCNCC3)c(F)cc2c1=O` [Cipro HCl, ciprofloxacin], in data set [1], the “Elimination from lung (rat IT)” value turned out to be 10.24 h⁻¹.
`O=C1OC2(c3ccc(O)cc3Oc3cc(O)ccc32)c2ccccc21` [Sodium fluorescein, sodium fluorescein]: in data set [2] (10 min), the “Portion of dose associated with BAL cells” value is recorded as “approximately 13%”. Moreover, the “Dose recovered in BAL” value in data set [2] (10 min following IT administration) is given as “less than 50%”. Further, the “Serum peak as proportion of administered dose” value in data set [2] (10 min post dose) was “less than 10%”. The “Peak amount in serum” value in data set [2] (10 min post dose, based on rat serum volume of approximately 8 mL) is recorded as “approximately 2 μg”. In addition, in data set [2] (10 min post-dose), the “Dose recovered in combined lung-derived fractions” value is “less than 50%”. Also, in data set [2] (fluorescein, PEG and PEG-FITC), the “Elimination from lung (rat IT)” value worked out at 1.38 h⁻¹. In addition, the BAL k-el in data set [2] (rat IT, BAL supernatant) amounted to 1.3253. Also, the “BAL t1/2-el” value in data set [2] (rat IT, elimination half-life from BAL) was 31.4 min. Besides, the half-life in data set [2] (bronchoalveolar lavage (BAL) supernatant, rat IT, elimination half-life from BAL, read-out: BAL t1/2-el) is below 31.2 min; in data set [2] (combined lung compartments, rat IT, combined lung compartments, read-out: Lung t1/2-el (converted)), 30.1 min. Further, the “BAL t90” value in data set [2] (time at which 90% of the dose would be eliminated) stood at 1.74 h. For the same molecule, the “BAL t99” value in data set [2] (time at which 99% of the dose would be eliminated) stood at 3.5 h. Further, the Papp – broadly, the rate of passage across a membrane or cell layer, normalised by area and donor concentration – in data set [3] worked out at 0.34 ×10⁻⁶ cm/s.

These data come from patent US20170095565A1, “CHEMICALLY MODIFIED SMALL MOLECULES” (Nektar Therapeutics, priority 2003, published 2017).
